Tests used:
Test in all cases: cells
CCRF-CEM = format: functional, cell-based, Homo sapiens; conditions: Homo sapiens, CCRF-CEM;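 also: inhibition of CCRF-CEM cell growth, measured by a cell viability assay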
Description: SANGER: Inhibition of human CCRF-CEM cell growth in a cell viability assay.

EKVX = format: functional, cell-based, Homo sapiens; conditions: Homo sapiens, EKVX;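 also: growth inhibition of human EKVX cells, read out with a cell viability assay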
Description: SANGER: Inhibition of human EKVX cell growth in a cell viability assay.

HCC1187 = format: functional, cell-based, Homo sapiens; conditions: Homo sapiens, HCC1187;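 also: growth inhibition of HCC1187 cells, read out with a cell viability assay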
Description: SANGER: Inhibition of human HCC1187 cell growth in a cell viability assay.

BB49-HNC = format: functional, cell-based, Homo sapiens; conditions: Homo sapiens, BB49-HNC;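 also: cell viability assay read-out, reported as inhibition of BB49-HNC cell growth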
Description: SANGER: Inhibition of human BB49-HNC cell growth in a cell viability assay.

D283 Med = format: functional, cell-based, Homo sapiens; conditions: Homo sapiens, D283 Med
Description: SANGER: Inhibition of human D-283MED cell growth in a cell viability assay.

SK-LMS-1 = format: functional, cell-based, Homo sapiens; conditions: Homo sapiens, SK-LMS-1;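 also: growth inhibition of human SK-LMS-1 cells, read out with a cell viability assay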
Description: SANGER: Inhibition of human SK-LMS-1 cell growth in a cell viability assay.

LB831-BLC = format: functional, cell-based, Homo sapiens; conditions: Homo sapiens, LB831-BLC;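 also: growth inhibition of LB831-BLC cells, read out with a cell viability assay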
Description: SANGER: Inhibition of human LB831-BLC cell growth in a cell viability assay.

NCI-H1650 = format: functional, cell-based, Homo sapiens; conditions: Homo sapiens, NCI-H1650;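 also: growth inhibition of human NCI-H1650 cells measured by a cell viability assay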
Description: SANGER: Inhibition of human NCI-H1650 cell growth in a cell viability assay.

NH-12 = format: functional, cell-based, Homo sapiens; conditions: Homo sapiens, NH-12;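 also: growth inhibition of NH-12 cells, read out with a cell viability assay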
Description: SANGER: Inhibition of human NH-12 cell growth in a cell viability assay.

KNS-81-FD = format: functional, cell-based, Homo sapiens; conditions: Homo sapiens, KNS-81-FD;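 also: growth inhibition of KNS-81-FD cells, read out with a cell viability assay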
Description: SANGER: Inhibition of human KNS-81-FD cell growth in a cell viability assay.

DEL = format: functional, cell-based, Homo sapiens; conditions: Homo sapiens, DEL;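 also: growth inhibition of the human DEL cell line, read out with a cell viability assay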
Description: SANGER: Inhibition of human DEL cell growth in a cell viability assay.

MHH-PREB-1 = format: functional, cell-based, Homo sapiens; conditions: Homo sapiens, MHH-PREB-1;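 also: cell viability assay measuring inhibition of proliferation of human MHH-PREB-1 cells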
Description: SANGER: Inhibition of human MHH-PREB-1 cell growth in a cell viability assay.

LS-1034 = format: functional, cell-based, Homo sapiens; conditions: Homo sapiens, LS-1034
Description: SANGER: Inhibition of human LS-1034 cell growth in a cell viability assay.

SK-N-DZ = format: functional, cell-based, Homo sapiens; conditions: Homo sapiens, SK-N-DZ; read-out: IC50;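 also: growth inhibition of the cancer cell line, read out through a viability assay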
Description: SANGER: Inhibition of human SK-N-DZ cell growth in a cell viability assay.

Lu-65 = format: functional, cell-based, Homo sapiens; conditions: Homo sapiens, Lu-65;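 also: growth inhibition of Lu-65 cancer cells, read out by a cell viability assay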
Description: SANGER: Inhibition of human LU-65 cell growth in a cell viability assay.

HT-144 = format: functional, cell-based, Homo sapiens; conditions: Homo sapiens, HT-144
Description: SANGER: Inhibition of human HT-144 cell growth in a cell viability assay.

SK-PN-DW = format: functional, cell-based, Homo sapiens; conditions: Homo sapiens, SK-PN-DW;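 also: growth inhibition measured with a viability assay on these cells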
Description: SANGER: Inhibition of human SK-PN-DW cell growth in a cell viability assay.

HL-60 = format: functional, cell-based, Homo sapiens; conditions: Homo sapiens, HL-60;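 also: growth inhibition of human HL-60 cells, read out with a cell viability assay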
Description: SANGER: Inhibition of human HL-60 cell growth in a cell viability assay.

NCI-H720 = format: functional, cell-based, Homo sapiens; conditions: Homo sapiens, NCI-H720;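 also: growth inhibition of human NCI-H720 cells determined by a cell viability assay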
Description: SANGER: Inhibition of human NCI-H720 cell growth in a cell viability assay.

MV4-11 = format: functional, cell-based, Homo sapiens, MV-4-11; conditions: Homo sapiens, MV4-11;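 also: cell viability readout measuring growth inhibition of human MV-4-11 cells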
Description: SANGER: Inhibition of human MV-4-11 cell growth in a cell viability assay.

LXF-289 cell line = format: functional, cell-based; conditions: Homo sapiens
Description: SANGER: Inhibition of human LXF-289 cell growth in a cell viability assay.

A253 cell line = format: functional, cell-based, Homo sapiens; conditions: Homo sapiens, A253;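 also: growth inhibition of A253 cells, read out with a cell viability assay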
Description: SANGER: Inhibition of human A253 cell growth in a cell viability assay.

NCI-H23 = format: functional, cell-based, Homo sapiens; conditions: Homo sapiens, NCI-H23;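 also: cell viability assay measuring growth inhibition of NCI-H23 cells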
Description: SANGER: Inhibition of human NCI-H23 cell growth in a cell viability assay.

CW-2 = format: functional, cell-based, Homo sapiens; conditions: Homo sapiens, CW-2;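 also: growth inhibition of CW-2 cells, read out by a cell viability assay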
Description: SANGER: Inhibition of human CW-2 cell growth in a cell viability assay.

RPMI-8226 = format: functional, cell-based, Homo sapiens; conditions: Homo sapiens, RPMI-8226
Description: SANGER: Inhibition of human RPMI-8226 cell growth in a cell viability assay.

MHH-NB-11 = format: functional, cell-based, Homo sapiens; conditions: Homo sapiens, MHH-NB-11;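 also: growth inhibition of human MHH-NB-11 cells, read out by a cell viability assay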
Description: SANGER: Inhibition of human MHH-NB-11 cell growth in a cell viability assay.

MOLT-4 = format: functional, cell-based, Homo sapiens; conditions: Homo sapiens, MOLT-4;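 also: growth inhibition of MOLT-4 cells, determined with a cell viability readout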
Description: SANGER: Inhibition of human MOLT-4 cell growth in a cell viability assay.

KALS-1 = format: functional, cell-based, Homo sapiens; conditions: Homo sapiens, KALS-1; read-out: IC50;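 also: growth inhibition of KALS-1 cells, determined with a cell viability assay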
Description: SANGER: Inhibition of human KALS-1 cell growth in a cell viability assay.

GI-ME-N = format: functional, cell-based, Homo sapiens; conditions: Homo sapiens, GI-ME-N;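 also: growth inhibition of human GI-ME-N cells, read out with a cell viability assay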
Description: SANGER: Inhibition of human GI-ME-N cell growth in a cell viability assay.

HD-MY-Z = format: functional, cell-based, Homo sapiens; conditions: Homo sapiens, HD-MY-Z;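 also: growth inhibition of HD-MY-Z cells, read out with a cell viability assay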
Description: SANGER: Inhibition of human HD-MY-Z cell growth in a cell viability assay.

LB996-RCC = format: functional, cell-based, Homo sapiens; conditions: Homo sapiens, LB996-RCC
Description: SANGER: Inhibition of human LB996-RCC cell growth in a cell viability assay.

GR-ST = format: functional, cell-based, Homo sapiens; conditions: Homo sapiens, GR-ST
Description: SANGER: Inhibition of human GR-ST cell growth in a cell viability assay.

PSN1 = format: functional, cell-based, Homo sapiens; conditions: Homo sapiens, PSN1;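 also: suppression of growth of human PSN1 cells, read out by a cell viability assay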
Description: SANGER: Inhibition of human PSN1 cell growth in a cell viability assay.

SJSA-1 = format: functional, cell-based, Homo sapiens; conditions: Homo sapiens, SJSA-1;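 also: growth inhibition of human SJSA-1 cells, read out through a cell viability measurement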
Description: SANGER: Inhibition of human SJSA-1 cell growth in a cell viability assay.

KP-N-YS = format: functional, cell-based, Homo sapiens; conditions: Homo sapiens, KP-N-YS;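 also: cell viability assay measuring inhibition of cell line growth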
Description: SANGER: Inhibition of human KP-N-YS cell growth in a cell viability assay.

J-RT3-T3-5 = format: functional, cell-based, Homo sapiens; conditions: Homo sapiens, J-RT3-T3-5;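 also: cell viability assay measuring growth inhibition of human J-RT3-T3-5 cells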
Description: SANGER: Inhibition of human J-RT3-T3-5 cell growth in a cell viability assay.

NEC8 = format: functional, cell-based, Homo sapiens; conditions: Homo sapiens, NEC8;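 also: growth inhibition of human NEC8 cells, read out by a cell viability assay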
Description: SANGER: Inhibition of human NEC8 cell growth in a cell viability assay.

MEG-01 = format: functional, cell-based, Homo sapiens; conditions: Homo sapiens, MEG-01;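 also: growth inhibition of MEG-01 cells, read out by a cell viability assay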
Description: SANGER: Inhibition of human MEG-01 cell growth in a cell viability assay.

K5 = format: functional, cell-based, Homo sapiens; conditions: Homo sapiens, K5
Description: SANGER: Inhibition of human K5 cell growth in a cell viability assay.

COLO-829 = format: functional, cell-based, Homo sapiens; conditions: Homo sapiens, COLO-829
Description: SANGER: Inhibition of human COLO-829 cell growth in a cell viability assay.

TE-10 = format: functional, cell-based, Homo sapiens; conditions: Homo sapiens, TE-10;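 also: growth inhibition of TE-10 cells, measured by a cell viability assay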
Description: SANGER: Inhibition of human TE-10 cell growth in a cell viability assay.

AM-38 = format: functional, cell-based, Homo sapiens; conditions: Homo sapiens, AM-38;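 also: growth inhibition of AM-38 cells of human origin, read out by a cell viability assay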
Description: SANGER: Inhibition of human AM-38 cell growth in a cell viability assay.

KG-1 = format: functional, cell-based, Homo sapiens; conditions: Homo sapiens, KG-1;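 also: growth inhibition of KG-1 cells, read out by a cell viability assay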
Description: SANGER: Inhibition of human KG-1 cell growth in a cell viability assay.

U-87 MG = format: functional, cell-based, Homo sapiens, U-87MG ATCC; conditions: Homo sapiens, U-87 MG;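 also: growth inhibition of the cells measured with a viability assay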
Description: SANGER: Inhibition of human U-87-MG cell growth in a cell viability assay.

KM12 = format: functional, cell-based, Homo sapiens; conditions: Homo sapiens, KM12;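 also: KM12 cell growth inhibition, read out with a cell viability assay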
Description: SANGER: Inhibition of human KM12 cell growth in a cell viability assay.

ONS-76 = format: functional, cell-based, Homo sapiens; conditions: Homo sapiens, ONS-76;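 also: growth inhibition of human ONS-76 cells, read out with a cell viability assay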
Description: SANGER: Inhibition of human ONS-76 cell growth in a cell viability assay.

RCC10RGB = format: functional, cell-based, Homo sapiens; conditions: Homo sapiens, RCC10RGB;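 also: growth inhibition of human RCC10RGB cells, read out by a cell viability assay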
Description: SANGER: Inhibition of human RCC10RGB cell growth in a cell viability assay.

UACC-257 = format: functional, cell-based, Homo sapiens; conditions: Homo sapiens, UACC-257
Description: SANGER: Inhibition of human UACC-257 cell growth in a cell viability assay.

COc1cc(N2CCC(N3CCN(C)CC3)CC2)ccc1Nc1ncc(Cl)c(Nc2ccccc2S(=O)(=O)C(C)C)n1 [TAE-684]
IC50 (CCRF-CEM): > 2 µM
IC50 (EKVX): > 2 µM
IC50 (HCC1187): 1.86 µM
IC50 (BB49-HNC): > 2 µM
IC50 (D283 Med): 1.22 µM
IC50 (SK-LMS-1): 1.16 µM
IC50 (LB831-BLC): 0.55 µM
IC50 (NCI-H1650): > 2 µM
IC50 (NH-12): > 2 µM
IC50 (KNS-81-FD): > 2 µM
IC50 (DEL): < 0.00781 µM
IC50 (MHH-PREB-1): > 2 µM
IC50 (LS-1034): 0.636 µM
IC50 (SK-N-DZ): 1.78 µM
IC50 (Lu-65): > 2 µM
IC50 (HT-144): 1.63 µM
IC50 (SK-PN-DW): 1.26 µM
IC50 (HL-60): 0.481 µM
IC50 (NCI-H720): 1.36 µM
IC50 (MV4-11): 0.394 µM
IC50 (LXF-289 cell line): 1.03 µM
IC50 (A253 cell line): > 2 µM
IC50 (NCI-H23): > 2 µM
IC50 (CW-2): > 2 µM
IC50 (RPMI-8226): 0.635 µM
IC50 (MHH-NB-11): > 2 µM
IC50 (MOLT-4): > 2 µM
IC50 (KALS-1): 1.34 µM
IC50 (GI-ME-N): 1.25 µM
IC50 (HD-MY-Z): > 2 µM
IC50 (LB996-RCC): 0.694 µM
IC50 (GR-ST): 1.39 µM
IC50 (PSN1): 0.196 µM
IC50 (SJSA-1): 0.637 µM
IC50 (KP-N-YS): > 2 µM
IC50 (J-RT3-T3-5): > 2 µM
IC50 (NEC8): 0.413 µM
IC50 (MEG-01): > 2 µM
IC50 (K5): 1.06 µM
IC50 (COLO-829): > 2 µM
IC50 (TE-10): 0.715 µM
IC50 (AM-38): > 2 µM
IC50 (KG-1): 0.396 µM
IC50 (U-87 MG): > 2 µM
IC50 (KM12): > 2 µM
IC50 (ONS-76): > 2 µM
IC50 (RCC10RGB): > 2 µM
IC50 (UACC-257): > 2 µM

CCCCCCCCCCCC1=C(O)C(=O)C=C(O)C1=O [EMBELIN]
IC50 (CCRF-CEM): 3.02 µM
IC50 (EKVX): > 32 µM
IC50 (HCC1187): > 32 µM
IC50 (BB49-HNC): > 32 µM
IC50 (D283 Med): 14.7 µM
IC50 (SK-LMS-1): 5.64 µM
IC50 (LB831-BLC): 12.6 µM
IC50 (NCI-H1650): 20.8 µM
IC50 (NH-12): 3.88 µM
IC50 (KNS-81-FD): 19.5 µM
IC50 (DEL): 10.4 µM
IC50 (MHH-PREB-1): 10.9 µM
IC50 (LS-1034): > 32 µM
IC50 (SK-N-DZ): > 32 µM
IC50 (Lu-65): > 32 µM
IC50 (HT-144): 8.74 µM
IC50 (SK-PN-DW): 30.6 µM
IC50 (HL-60): 8.85 µM
IC50 (NCI-H720): > 32 µM
IC50 (MV4-11): > 32 µM
IC50 (LXF-289 cell line): 9 µM
IC50 (A253 cell line): 7.75 µM
IC50 (NCI-H23): > 32 µM
IC50 (CW-2): > 32 µM
IC50 (RPMI-8226): 13.7 µM
IC50 (MHH-NB-11): > 32 µM
IC50 (MOLT-4): 10.6 µM
IC50 (KALS-1): 14.9 µM
IC50 (GI-ME-N): > 32 µM
IC50 (HD-MY-Z): 26.9 µM
IC50 (LB996-RCC): 14.1 µM
IC50 (GR-ST): 5.8 µM
IC50 (PSN1): 5.41 µM
IC50 (SJSA-1): 4.27 µM
IC50 (KP-N-YS): > 32 µM
IC50 (J-RT3-T3-5): 6.09 µM
IC50 (NEC8): 6.89 µM
IC50 (MEG-01): 25.5 µM
IC50 (K5): > 32 µM
IC50 (COLO-829): 5.29 µM
IC50 (TE-10): 13.3 µM
IC50 (AM-38): 12.5 µM
IC50 (KG-1): > 32 µM
IC50 (U-87 MG): > 32 µM
IC50 (KM12): 13.5 µM
IC50 (ONS-76): 8.45 µM
IC50 (RCC10RGB): > 32 µM
IC50 (UACC-257): > 32 µM

Cc1ccc(-n2nc(C(C)(C)C)cc2NC(=O)Nc2ccc(OCCN3CCOCC3)c3ccccc23)cc1 [DORAMAPIMOD]
IC50 (CCRF-CEM): > 10 µM
IC50 (EKVX): > 10 µM
IC50 (HCC1187): > 10 µM
IC50 (BB49-HNC): > 10 µM
IC50 (D283 Med): > 10 µM
IC50 (SK-LMS-1): > 10 µM
IC50 (LB831-BLC): > 10 µM
IC50 (NCI-H1650): > 10 µM
IC50 (NH-12): > 10 µM
IC50 (KNS-81-FD): > 10 µM
IC50 (DEL): > 10 µM
IC50 (MHH-PREB-1): > 10 µM
IC50 (LS-1034): > 10 µM
IC50 (SK-N-DZ): > 10 µM
IC50 (Lu-65): > 10 µM
IC50 (HT-144): > 10 µM
IC50 (SK-PN-DW): > 10 µM
IC50 (HL-60): > 10 µM
IC50 (NCI-H720): > 10 µM
IC50 (MV4-11): > 10 µM
IC50 (LXF-289 cell line): > 10 µM
IC50 (A253 cell line): > 10 µM
IC50 (NCI-H23): > 10 µM
IC50 (CW-2): > 10 µM
IC50 (RPMI-8226): > 10 µM
IC50 (MHH-NB-11): > 10 µM
IC50 (MOLT-4): > 10 µM
IC50 (KALS-1): > 10 µM
IC50 (GI-ME-N): > 10 µM
IC50 (HD-MY-Z): > 10 µM
IC50 (LB996-RCC): > 10 µM
IC50 (GR-ST): > 10 µM
IC50 (PSN1): > 10 µM
IC50 (SJSA-1): > 10 µM
IC50 (KP-N-YS): > 10 µM
IC50 (J-RT3-T3-5): > 10 µM
IC50 (NEC8): > 10 µM
IC50 (MEG-01): > 10 µM
IC50 (K5): > 10 µM
IC50 (COLO-829): > 10 µM
IC50 (TE-10): > 10 µM
IC50 (AM-38): > 10 µM
IC50 (KG-1): > 10 µM
IC50 (U-87 MG): > 10 µM
IC50 (KM12): > 10 µM
IC50 (ONS-76): > 10 µM
IC50 (RCC10RGB): > 10 µM
IC50 (UACC-257): > 10 µM
